Assay results reported in patent US9326513B2, “Fungicidal compositions” (Syngenta Participations AG, priority 2011, dated 2016).

How the values were obtained:
Assay type in all cases: in vivo
Conditions in all cases: foliar, compared to untreated control leaf disks, read-out: disease control
[1] = system: Blumeria graminis f. sp. tritici (Erysiphe graminis f. sp. tritici); experiment: Blumeria graminis f. sp. tritici / wheat / leaf disc preventative (powdery mildew on wheat)
Procedure, shortened: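 Preventative leaf-disc test: compound (200 ppm) was sprayed onto cv. Kanzler wheat segments, which were dusted with conidia from infected plants 1 day after application. After incubation at 20° C and 60% rh, disease control relative to untreated segments was rated 6-8 days after application.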

[2] = system: Puccinia recondita f. sp. tritici; experiment: Puccinia recondita f. sp. tritici / wheat / leaf disc preventative (brown rust)
Text: Puccinia recondita f. sp. tritici/Wheat/Leaf Disc Preventative (Brown Rust) Wheat leaf segments cv. Kanzler were placed on agar in multiwell plates (24-well format) and sprayed with the formulated test compound diluted in water. The leaf disks were inoculated with a spore suspension of the fungus 1 day after application.

[3] = system: Puccinia recondita f. sp. tritici; experiment: Puccinia recondita f. sp. tritici / wheat / leaf disc curative (brown rust)
Method: Puccinia recondita f. sp. tritici/Wheat/Leaf Disc Curative (Brown Rust) Wheat leaf segments cv. Kanzler are placed on agar in multiwell plates (24-well format). The leaf segments are inoculated with a spore suspension of the fungus. Plates were stored in darkness at 19° C. and 75% rh. The formulated test compound diluted in water was applied 1 day after inoculation.

Pyrenophora teres = Pyrenophora teres / barley / leaf disc preventative (net blotch)
Text: Pyrenophora teres/Barley/Leaf Disc Preventative (Net Blotch) Barley leaf segments cv. Hasso were placed on agar in a multiwell plate (24-well format) and sprayed with the formulated test compound diluted in water. The leaf segments were inoculated with a spore suspension of the fungus 2 days after application.

Measured: pest or weed control at 200 ppm

CCN(C)/C=N/c1cc(Br)c(OC2CCS(=O)(=O)CC2)nc1C [Q.161]
≥ 50%: all assays above

CCN(C)/C=N/c1cc(Br)c(OC2CCN(C(=O)C(C)C)CC2)nc1C [Q.162]
≥ 50%: all assays above

CCN(C)/C=N/c1cc(Br)c(OC2CCN(S(C)(=O)=O)CC2)nc1C [Q.163]
≥ 50%: all assays above

CCN(C)/C=N/c1cc(Br)c(OC2CCN(S(=O)(=O)N(C)C)CC2)nc1C [Q.164]
≥ 50%: all assays above

CCN(C)/C=N/c1cc(Br)c(OC2CCC(OC)CC2)nc1C (stereo not drawn) [Q.166]
≥ 50%: all assays above

CCN(C)/C=N/c1cc(Br)c(OC2CCC(C)C2)nc1C (stereo not drawn) [Q.167]
≥ 50%: all assays above

CCN(C)/C=N/c1cc(Br)c(OC2Cc3ccc(OCc4ccccc4)cc3C2)nc1C (stereo not drawn) [Q.168]
≥ 50%: all assays above

CCN(C)/C=N/c1cc(Br)c(OCc2cccc(C(F)F)c2)nc1C [Q.170]
≥ 50%: all assays above

CCN(C)/C=N/c1cc(Br)c(OCc2cccc(I)c2)nc1C [Q.174]
≥ 50%: all assays above

CCN(C)/C=N/c1cc(Br)c(OCc2cccc(C)c2C)nc1C [Q.175]
≥ 50%: all assays above

CCN(C)/C=N/c1cc(Br)c(OCc2cccc(F)c2)nc1C [Q.176]
≥ 50%: all assays above

CCN(C)/C=N/c1cc(I)c(OC(C)c2cc(F)cc(F)c2)nc1C (stereo not drawn) [Q.178]
≥ 50%: all assays above

CCN(C)/C=N/c1cc(I)c(O[C@H]2CC[C@@H](C(C)C)CC2)nc1C [Q.180]
≥ 50%: all assays above

CCN(C)/C=N/c1ccc(O[C@H]2CC[C@@H](C(C)C)CC2)nc1C [Q.183]
≥ 50%: all assays above

CCN(C)/C=N/c1cc(C)c(OC(C)c2cc(F)cc(F)c2)nc1C (stereo not drawn) [Q.184]
≥ 50%: all assays above

CCN(C)/C=N/c1cc(C)c(O[C@H]2CC[C@@H](C(C)C)CC2)nc1C [Q.186]
≥ 50%: all assays above

CCCN(C)/C=N/c1cc(Br)c(OC(C)c2cc(F)cc(F)c2)nc1C (stereo not drawn) [Q.191]
≥ 50%: all assays above

Cc1nc(OC(C)c2cc(F)cc(F)c2)c(Br)cc1/N=C/N1CCCC1 (stereo not drawn) [Q.193]
≥ 50%: all assays above

CCN(C)/C=N/c1cc(Br)c(OC2Cc3ccc(Br)cc3C2)nc1C (stereo not drawn) [Q.196]
≥ 50%: all assays above

CCN(C)/C=N/c1cc(Br)c(OC2Cc3cc(C)c(C)cc3C2)nc1C [Q.197]
≥ 50%: all assays above

CCN(C)/C=N/c1cc(Br)c(OC(C)Cc2ccccc2)nc1C (stereo not drawn) [Q.198]
≥ 50%: all assays above

CCN(C)/C=N/c1cc(Br)c(OC2Cc3ccc(OC)cc3C2)nc1C (stereo not drawn) [Q.199]
≥ 50%: all assays above

CCN(C)/C=N/c1cc(Br)c(OC2Cc3cccc(C)c3C2)nc1C (stereo not drawn) [Q.200]
≥ 50%: all assays above

CCN(C)/C=N/c1cc(Br)c(OC(C)CCCc2ccccc2)nc1C (stereo not drawn) [Q.201]
≥ 50%: all assays above

CCN(C)/C=N/c1cc(Br)c(OC(C)c2cc(C)cc(C)c2)nc1C (stereo not drawn) [Q.203]
≥ 50%: all assays above

CCN(C)/C=N/c1cc(Br)c(OC(C)c2ccc(F)c(F)c2)nc1C (stereo not drawn) [Q.204]
≥ 50%: all assays above

CCN(C)/C=N/c1cc(Br)c(OCc2ccc(F)c(F)c2)nc1C [Q.206]
≥ 50%: all assays above

CCN(C)/C=N/c1cc(Br)c(OCc2ccsc2)nc1C [Q.208]
≥ 50%: all assays above

CCN(C)/C=N/c1cc(Br)c(OCc2ccc3ncccc3c2)nc1C [Q.209]
≥ 50%: all assays above

CCN(C)/C=N/c1cc(Br)c(OC2CCC(OC(=O)C(C)C)CC2)nc1C (stereo not drawn) [Q.211]
≥ 50%: all assays above

C=CCOC1CCC(Oc2nc(C)c(/N=C/N(C)CC)cc2Br)CC1 (stereo not drawn) [Q.212]
≥ 50%: all assays above

CCN(C)/C=N/c1cc(OC)c(OC(C)c2cc(F)cc(F)c2)nc1C (stereo not drawn) [Q.214]
≥ 50%: all assays above

CCN(C)/C=N/c1cc(C(F)F)c(OC(C)c2cc(F)cc(F)c2)nc1C (stereo not drawn) [Q.215]
≥ 50%: all assays above

CCN(C)/C=N/c1cc(C2CC2)c(OC(C)c2cc(F)cc(F)c2)nc1C (stereo not drawn) [Q.216]
≥ 50%: all assays above

CCN(C)/C=N/c1cc(Br)c(OC(C)Cc2cc(F)cc(F)c2)nc1C (stereo not drawn) [Q.217]
≥ 50%: all assays above

CCN(C)/C=N/c1cc(Br)c(OC(C)Cc2cccc(F)c2)nc1C (stereo not drawn) [Q.218]
≥ 50%: all assays above

CCN(C)/C=N/c1cc(Br)c(OC(C)Cc2cc(C)cc(C)c2)nc1C (stereo not drawn) [Q.219]
≥ 50%: all assays above

C=CCCC(C)Oc1nc(C)c(/N=C/N(C)CC)cc1Br (stereo not drawn) [Q.220]
≥ 50%: all assays above

CCN(C)/C=N/c1cc(Br)c(OC(C)Cc2cc(Cl)cc(Cl)c2)nc1C (stereo not drawn) [Q.221]
≥ 50%: all assays above

CCN(C)/C=N/c1cc(Br)c(OCCC2CC2)nc1C [Q.222]
≥ 50%: all assays above

CCN(C)/C=N/c1cc(Br)c(OCC(C)c2ccccc2)nc1C (stereo not drawn) [Q.223]
≥ 50%: all assays above

CCN(C)/C=N/c1cc(Br)c(OCC2CCc3ccccc3C2)nc1C (stereo not drawn) [Q.224]
≥ 50%: all assays above
